Molecules are shown by their SMILES. pIC50: −log10 of the molar value. Structures can show the parent of a compound that is named as a salt.

Usually pIC50 stands for the negative decadic logarithm of the IC50, by convention in mol/L.

Assay [1] concerns the target T1, human recombinant ENPP1 enzymes (Homo sapiens, UniProt P22413).
T1 construct: purchased R & D systems
T1 sequence (P22413 1-925): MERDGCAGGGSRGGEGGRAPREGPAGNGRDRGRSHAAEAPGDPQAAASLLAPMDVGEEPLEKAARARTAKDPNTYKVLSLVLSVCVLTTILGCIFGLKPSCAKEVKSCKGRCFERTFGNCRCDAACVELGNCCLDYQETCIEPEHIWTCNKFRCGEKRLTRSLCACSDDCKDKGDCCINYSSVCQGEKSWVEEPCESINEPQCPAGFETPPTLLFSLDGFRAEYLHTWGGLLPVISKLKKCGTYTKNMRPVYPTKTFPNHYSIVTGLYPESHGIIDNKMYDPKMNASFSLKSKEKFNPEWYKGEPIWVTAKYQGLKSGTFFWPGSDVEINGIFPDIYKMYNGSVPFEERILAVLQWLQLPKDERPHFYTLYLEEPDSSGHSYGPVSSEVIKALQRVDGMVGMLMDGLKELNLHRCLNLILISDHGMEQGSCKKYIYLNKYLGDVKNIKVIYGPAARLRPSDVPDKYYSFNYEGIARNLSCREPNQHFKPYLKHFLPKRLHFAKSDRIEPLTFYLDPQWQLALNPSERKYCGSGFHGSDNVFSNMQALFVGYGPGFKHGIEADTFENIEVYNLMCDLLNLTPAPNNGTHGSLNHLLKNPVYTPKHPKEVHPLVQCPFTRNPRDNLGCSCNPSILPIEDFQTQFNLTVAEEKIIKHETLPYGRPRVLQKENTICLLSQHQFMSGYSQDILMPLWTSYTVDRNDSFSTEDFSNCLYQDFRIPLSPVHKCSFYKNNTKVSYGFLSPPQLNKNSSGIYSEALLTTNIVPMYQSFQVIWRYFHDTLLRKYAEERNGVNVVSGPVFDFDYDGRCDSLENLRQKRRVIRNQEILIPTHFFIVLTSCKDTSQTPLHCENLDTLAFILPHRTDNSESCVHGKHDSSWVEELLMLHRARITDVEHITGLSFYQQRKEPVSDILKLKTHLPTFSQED
As to the kind of experiment: ENPP1 Enzyme Assay with cGAMP Substrate (AMP-Glo). Type of assay: biochemical. Particulars: human recombinant ENPP1 3 ng/reaction, cGAMP 5 μM, 37° C. 90 minutes, average of two or more tests; read-out: Enzymatic activity IC50. The method in brief:
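Human recombinant ENPP1 (3 ng/reaction) preincubated 5–10 min at RT with inhibitor, then reacted with 5 µM cGAMP for 90 min at 37 °C in 50 mM Tris pH 8.5, 250 mM NaCl, 0.5 mM CaCl2, 1 µM ZnCl2, 1% DMSO. AMP produced read by AMP-Glo luminescence; IC50 from 3-parameter fit, averaged over ≥2 runs.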

The test system of assay [2] is interferon regulatory factor 3 (IRF3) in HCT116-Dual cells. As to the kind of experiment: HCT116-Dual Cell Luciferase Assay (ISG54 promoter, IRF3 activity). The format is cell-based. Particulars: ENPP1 inhibitor usually 10 μM plus cGAMP 10 μM, 48 hours, Lucia luciferase. From the text:
HCT116-Dual™ cells express genes encoding luciferase secreted under the control of the interferon-stimulated gene 54 (ISG54) promoter along with five interferon-stimulated response elements. The HCT116-Dual™ cell line was used to measure and monitor the activity of interferon regulatory factor 3 (IRF3), which induces production of type I interferon and relates to downstream signaling, and Lucia secreted in the culture medium was used to generate luminescence in a luciferase reaction.
HCT116-Dual™ cells were cultured at 2×10^4 cells/well (93.4 μL) in a 96-well plate for one day in a DMEM medium containing 10% FBS and 25 mM HEPES (pH 7.2-7.5). The cells were treated with 3.3 μL of ENPP1 inhibitor (usually 10 μM) and then 3.3 μL of cGAMP (10 μM) to set the final volume to 100 μL (The final fraction of DMSO was 0.1%). The cells treated with ENPP1 inhibitor and cGAMP were cultured at 37° C. for 48 hours and 50 μL of Quanti-Luc reaction solution was added to 20 μL of cell culture medium to measure luciferase activity. The increase in interferon regulatory factor 3 (IRF3) by the compound compared to cGAMP was determined as fold.

`Cl.NCc1ccc(-c2ccnc3[nH]c(=O)ccc23)cc1` [Example 10, 5-(4-(aminomethyl)phenyl)-1,8-naphthyridin-2(1H)-one hydrochloride]: in assay [1], the pIC50 was greater than 6.00. The “Cellular activity: increase in IRF3 by the compound compared to cGAMP, as fold” value (shortened to “Cellular activity: increase in IRF3 … as fold”) in assay [2] is recorded as “B (1< Fold <2)”.

Consider `C[C@@H](N)c1ccc(-c2ccnc3[nH]c(=O)ccc23)cc1.Cl` [Example 15, (R)-5-(4-(1-aminoethyl)phenyl)-1,8-naphthyridin-2(1H)-one hydrochloride], for which, in assay [1], the pIC50 was greater than 6.00. Moreover, the “Cellular activity: increase in IRF3 … as fold” value in assay [2] was “B (1< Fold <2)”.

Consider `NS(=O)(=O)NCc1cccc(-c2ccnc3[nH]c(=O)ccc23)c1` [Example 37, N-(3-(7-oxo-7,8-dihydro-1,8-naphthyridin-4-yl)benzyl)sulfamide], for which the pIC50 in assay [1] is greater than 6.00. For the same compound, in assay [2], the “Cellular activity: increase in IRF3 … as fold” value is “B (1< Fold <2)”.

Consider `Cl.NS(=O)(=O)N1CCc2ccc(-c3ccnc4c3CCC(=O)N4)cc2C1` [Example 145, (7-(7-oxo-5,6,7,8-tetrahydro-1,8-naphthyridin-4-yl)-3,4-dihydroisoguinolin-2(1H)-yl)sulfamide hydrochloride], for which the pIC50 in assay [1] was greater than 6.00. Moreover, the “Cellular activity: increase in IRF3 … as fold” value in assay [2] is “B (1< Fold <2)”.

With `NS(=O)(=O)NCc1ccc(-c2ccnc3c2CCC(=O)N3)cc1F` [Example 142, N-(2-fluoro-4-(7-oxo-5,6,7,8-tetrahydro-1,8-naphthyridin-4-yl)benzyl)sulfamide], in assay [1], the pIC50 was greater than 6.00. Besides, in assay [2], the “Cellular activity: increase in IRF3 … as fold” value is reported as “B (1< Fold <2)”.

For `NS(=O)(=O)NCc1ccc(-c2ccnc3[nH]c(=O)ccc23)c(F)c1` [Example 42, N-(3-fluoro-4-(7-oxo-7,8-dihydro-1,8-naphthyridin-4-yl)benzyl)sulfamide hydrochloride], the negative-log IC50 (pIC50) in assay [1] was greater than 6.00. In addition, in assay [2], the “Cellular activity: increase in IRF3 … as fold” value is on record as “A (>2)”.

As to `CCN(Cc1ccc(-c2ccnc3[nH]c(=O)ccc23)c(F)c1)S(N)(=O)=O.Cl` [Example 56, N-ethyl-N-(3-fluoro-4-(7-oxo-7,8-dihydro-1,8-naphthyridin-4-yl)benzyl)sulfamide hydrochloride], the pIC50 in assay [1] was greater than 6.00. In addition, in assay [2], the “Cellular activity: increase in IRF3 … as fold” value was “B (1< Fold <2)”.

As for `CC(NS(N)(=O)=O)c1ccc(-c2ccnc3[nH]c(=O)ccc23)cc1.Cl` (stereo not drawn) [Example 45, N-(1-(4-(7-oxo-7,8-dihydro-1,8-naphthyridin-4-yl)phenyl)ethyl)sulfamide hydrochloride], in assay [1], the pIC50 is greater than 6.00. Besides, in assay [2], the “Cellular activity: increase in IRF3 … as fold” value is on record as “B (1< Fold <2)”.

In the case of `CCN(Cc1ccc(-c2ccnc3[nH]c(=O)ccc23)cc1F)S(N)(=O)=O.Cl` [Example 53, N-ethyl-N-(2-fluoro-4-(7-oxo-7,8-dihydro-1,8-naphthyridin-4-yl)benzyl)sulfamide hydrochloride], the pIC50 in assay [1] is greater than 6.00. For the same compound, the “Cellular activity: increase in IRF3 … as fold” value in assay [2] was “B (1< Fold <2)”.

Values taken from US20240140944A1, “NOVEL NAPHTHYRIDINONE DERIVATIVE HAVING INHIBITORY ACTIVITY AGAINST ECTONUCLEOTIDE PYROPHOSPHATASE-PHOSPHODIESTERASE AND USE THEREOF” (TXINNO BIOSCIENCE INC., priority 2020, published 2024).
